System: pcy mice
Assay: Effect of tolvaptan and octreotide, alone or combined, on kidney weight of pcy mice (PKD model animals)
Assay type: in vivo
Conditions: male pcy mice, 0.03% tolvaptan in feed and/or octreotide 300 μg/kg × 2/day sc; for kidney weight suppressive effect compared to the pcy control group: 15 weeks of age, Dunnett's test; for Kidney weight (% body weight) Mean ± SE: 15 weeks old at autopsy, treated from 5 to 15 weeks of age, pcy control 8.02 ± 0.66, normal DBA 1.53 ± 0.04
Method: Individual or combined effects of tolvaptan, which is a vasopressin receptor antagonist, and octreotide, which is a somatostatin analogue, against polycystic kidney disease were evaluated using pcy mice, which are PKD model animals.
The aforementioned pcy mice are adult polycystic kidney disease model mice, and the mode of inheritance is autosomal recessive. […] It has been reported that compared to wild-type mice, pcy mice have increased renal cAMP levels and elevated renal mRNA levels of aquaporin-2 and vasopressin V2 receptor (V2R). For details, see Non-patent Literature (NPL) 1.
Based on the body weight at 4 weeks of age and the renal volume measured by MRI, the pcy mice (male) were divided into the following four groups (each group: 9 mice):
(2) a group receiving a feed containing 0.03% tolvaptan;
(3) a group receiving octreotide (300 μg/kg×2/day sc); and
(4) a group receiving a feed containing 0.03% tolvaptan, and octreotide (300 μg/kg×2/day sc).
As normal control mice, DBA/2JJcl mice (5 mice) were used. A 0.03% tolvaptan-containing MF feed was given to the groups receiving tolvaptan. A MF feed not containing tolvaptan was given to the other groups, i.e., the control group and the group receiving octreotide alone. Sandostatin® subcutaneous injection (100 μg/ml) was diluted with physiological saline and subcutaneously injected in an amount of 300 μg/kg/10 ml to the group receiving octreotide twice a day, morning and evening.
The drug treatment was started from 5 weeks of age, and continued until 15 weeks of age. Urine was collected from each mouse at 14 weeks of age using metabolic cages for 19 hours, and urine volume and urinary albumin excretion were measured.
The DBA control mice and pcy mice were sacrificed under isoflurane anesthesia at 15 weeks of age to collect their blood, and right and left kidneys. Plasma parameters were measured from the obtained blood, and the weight of right and left kidneys was measured.

Compound	kidney weight suppressive effect compared to the pcy control group	Kidney weight (% body weight) Mean ± SE [% body weight]
Cc1ccccc1C(=O)Nc1ccc(C(=O)N2CCCC(O)c3cc(Cl)ccc32)c(C)c1 (stereo not shown) [tolvaptan, 7-chloro-5-hydroxy-1-[2-methyl-4-(2-methylbenzoylamino)benzoyl]-2,3,4,5-tetrahydro-1H-benzoazepine]	did not exhibit significant kidney weight suppressive effects	7.28 ± 0.84
(−)-D-phenylalanyl-L-cysteinyl-L-phenylalanyl-D-tryptophyl-L-lysyl-L-threonyl-N-[(1R,2R)-2-hydroxy-1-(hydroxymethyl)propyl]-L-cysteinamide cyclic (2-47) disulfide [octreotide]	did not exhibit significant kidney weight suppressive effects	6.68 ± 0.65

— patent US11013746B2, “Drug for preventing and/or treating polycystic kidney disease” (OTSUKA PHARMACEUTICAL CO., LTD., priority 2012, dated 2021)
